According to patent US20260263550A1, “METHODS AND COMPOSITIONS FOR TREATING, PREVENTING, INHIBITING, AMELIORATING OR DELAYING THE ONSET OF OPHTHALMIC CONDITIONS” (Stealth BioTherapeutics Inc., priority 2021, published 2026):
Where “and” joins values, the source holds several entries; their conditions need not be identical. Equal entries are not always repeated.

Assays:
[1] = Uptake in the retina after 10-day SC dosing, LC-MS/MS; type: in vivo, cynomolgus monkey; settings: male cynomolgus monkeys 1001-1003, SC 5 mg/kg/day for 10 days, left eye, approximately 24 hours after the last dose
Description: Administration of Compound of Formula IIa. The test agent (compound of formula IIa) was administered daily via subcutaneous injection into the scapular and mid-dorsal areas for 10 days. The first day of dosing was designated as Day 1. Dose formulations were allowed to warm up at ambient temperature for at least 30 minutes prior to dosing, as appropriate. The animals were temporarily restrained for dose administration and were not sedated. The volume for each dose was administered over 1 (preferred) or 2 (as necessary) separated injections within the designated area. If a designated injection site was not available for a given animal on any day, the next available test site in the rotation was used. The injection area was marked as frequently as required to allow appropriate visualization of administration sites. On the last injection occasion for each quadrant, the last site of injection was circled, and the circled site was collected for necropsy.
Tissue collection, preservation, and analysis. Eye tissue (retina) was collected approximately 24 hours after the last dose on Day 10. […]
Tissue samples were prepared and analyzed by methods similar to those described above in Example 3. In brief, concentrations of test article (compound of Formula IIa) in the retina (ng/g tissue) was determined by LC-MS/MS using Formula IIb as a standard.

[2] = 28-day SC study safety endpoints (clinical observations, ophthalmology); type: in vivo, cynomolgus monkey
Description: Male and female cynomolgus monkeys were divided into four groups (Groups 1 to 4). Groups 1 and 4 consisted of five males and five females each and Groups 2 and 3 consisted of three males and three females each. Animals were dosed via SC injection once daily for 28 consecutive days. Group 1 animals received the control article, 0.9% sodium chloride injection, USP (saline). Group 2, 3, and 4 animals received the test article, compound of Formula IIa, at dose levels of 2, 5, and 15 mg/kg/day, respectively. Three males and three females from Groups 1 to 3, and three males and one female from Group 4 were necropsied on Day 29 (terminal necropsy). Two males and two females from Groups 1 and 4 were necropsied on Day 42 (recovery necropsy), after a 13-day treatment-free period. […] At termination, gross observations and organ weights were recorded, and eye/optic nerve tissue samples were collected for microscopic evaluation and biodistribution assays. […]
Body weight. Body weights were measured twice during acclimation (including Day −1), then weekly during the in-life phase (Days 7, 14, 21, 28, 35, and 41) and on the day of corresponding necropsy (Day 29 or Day 42). […]

[3] = system: iPSC-derived RPE cells from AMD donors; assay: Cell viability assay on nitrite-modified ECM (Real Time-Glo MT Cell Viability Assay); type: cell-based, human; settings: 10, 100, 1000 nM; 24 hours; versus vehicle-treated cells; FIG. 8J, *p<0.05
Description: General. iPSC-derived RPE were generated from AMD patients (2 atrophic; 1 exudative) and patients with no history of AMD (n=3). To test the therapeutic efficacy of elamipretide and compound of Formula IIa, cell viability was analyzed on nitrite-modified extracellular matrix (ECM), a typical modification of aged Bruch's membrane, for 24 hrs. DNA microarrays were used to elucidate gene expression in AMD-derived RPE cultured on nitrite-modified ECM.
Preparation of RPE cell-derived ECM and nitrite-modified ECM RPE cell-derived ECM plates were prepared from ARPE-19 cells as described in Wang et al., Curr Eye Res. 30:691-702 (2005); Fields et al. (2017); and Moreira et al., Transl Vis Sci Technol. 4:10 (2015). ECM on 96-well plates were used to create two experimental plating surfaces (nontreated ECM and nitrite-modified ECM). Nitrite-modified ECM was prepared by adding 100 mM sodium nitrite to ECM followed by incubation at 37° C. for 7 days. Plates were then washed with DPBS and incubated with DPBS for 4 hours to completely remove the nitrite. […]
Cell viability was measured by Real Time-Glo MT Cell Viability Assay (Promega, Madison, WI, www.promega.com) according to the manufacturer's protocol. […] Luminescent signals were acquired using a BioTek FLx800 plate reader (BioTek).

Cc1cc(O)cc(C)c1C[C@H](NC(=O)[C@H](N)CCCNC(=N)N)C(=O)N[C@@H](CCCCN)c1nc(Cc2ccccc2)no1.Cl.Cl.Cl [Formula IIa, (R)-2-amino-N—((S)-1-(((S)-5-amino-1-(3-benzyl-1,2,4-oxadiazol-5-yl)pentyl)amino)-3-(4-hydroxy-2,6-dimethylphenyl)-1-oxopropan-2-yl)-5-guanidinopentanamide]
Concentration in Retina at Day 11 (individual subjects) [1]: 382 ng/g and 336 ng/g and 126 ng/g | tolerability of dosing ([2]; SC 15 mg/kg/day (Group 4), two females necropsied early on Days 25 and 27): not well tolerated | ophthalmology examination findings ([2]; SC 2, 5, 15 mg/kg/day, Day 24 (Week 4)): no compound of Formula IIa-related findings | AMD-derived RPE cell viability on nitrite-modified ECM [3]: significantly enhanced
